The values that follow come from patent US20240400555A1 (Initial Therapeutics, Inc., priority 2023, published 2024).

Molecules are shown by their SMILES.

The subject of the first assay is MV-4-11 cells. The experiment in a line: Cell Viability Assay in MV-4-11 Cells. Type of assay: cell-based. Conditions: Homo sapiens, MV4-11, 72 h. The procedure, abridged: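 Luminescent ATP read-out (CellTiter-Glo) after 72 h compound treatment of MV-4-11 leukaemia cells (7,000 per well, IMDM plus 10% FBS). Values expressed relative to DMSO control and derived by four-parameter non-linear regression.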
`O=C(c1ccc(-n2nnc3cccnc32)cc1F)N(c1nccc2cc(C#CCO)ccc12)[C@@H]1CCCNC1` [Example 398, (R)-4-(3H-[1,2,3]triazolo[4,5-b]pyridin-3-yl)-2-fluoro-N-(6-(3-hydroxyprop-1-yn-1-yl)isoquinolin-1-yl)-N-(piperidin-3-yl)benzamide] had a 50% inhibitory concentration (IC50) of 71 nM.

Still in this assay, the particulars now being: Homo sapiens, MV4-11, 72 h, MV-4-11 cells, 72 h, Cell-Titer Glo; read-out: IC50.
For `COCCn1cc(-c2ccc(C(=O)N(c3nccc4cc(F)cc(C)c34)[C@@H]3CCCNC3)cn2)nn1` [Example 920, N-(6-fluoro-8-methyl-1-isoquinolyl)-6-[1-(2-methoxyethyl)triazol-4-yl]-N-[(3R)-3-piperidyl]pyridine-3-carboxamide], the half-inhibitory concentration (IC50) came out at 84 nM.

On to `Cc1noc(-c2ccc(C(=O)N(c3nccc4cc(Cl)cc(C)c34)[C@@H]3CCCNC3)cc2)n1` [Example 773, (R)—N-(6-chloro-8-methylisoquinolin-1-yl)-4-(3-methyl-1,2,4-oxadiazol-5-yl)-N-(piperidin-3-yl)benzamide], for which the concentration for half-maximal inhibition (IC50) is 190 nM.

Turning to `Cn1cc(-c2ccc(C(=O)N(c3nccc4cc(Cl)ccc34)[C@@H]3CCCNC3)c(F)c2)nn1` [Example 470, N-(6-chloro-1-isoquinolyl)-2-fluoro-4-(1-methyltriazol-4-yl)-N-[(3R)-3-piperidyl]benzamide], the IC50 was 91 nM.

Consider `Cn1cc(-c2ccc(C(=O)N(c3nccc4sc(-c5ccc(C(O)(C(F)(F)F)C(F)(F)F)cc5)cc34)[C@@H]3CCCNC3)c(F)c2)nn1` [Example 604, (R)-2-fluoro-N-(2-(4-(1,1,1,3,3,3-hexafluoro-2-hydroxypropan-2-yl)phenyl)thieno[3,2-c]pyridin-4-yl)-4-(1-methyl-1H-1,2,3-triazol-4-yl)-N-(piperidin-3-yl)benzamide], for which the concentration for half-maximal inhibition (IC50) was determined as 2100 nM.

With `Cc1cccc2ccnc(N(C(=O)c3ccc(Nc4ncccn4)c(Cl)c3)[C@@H]3CCCNC3)c12` [Example 847, (R)-3-chloro-N-(8-methylisoquinolin-1-yl)-N-(piperidin-3-yl)-4-(pyrimidin-2-ylamino)benzamide], the IC50 was 2000 nM.

On to `Cc1cccc2ccnc(N(C(=O)c3ccc(Nc4ncnc(N5CCCCC5)n4)cc3F)[C@@H]3CCCNC3)c12` [Example 969, 2-fluoro-N-(8-methylisoquinolin-1-yl)-4-{[4-(piperidin-1-yl)-1,3,5-triazin-2-yl]amino}-N-[(3R)-piperidin-3-yl]benzamide], for which the 50% inhibitory concentration (IC50) is 45 nM.

Consider `Cc1nnc(-c2ccc(C(=O)N(c3nccc4cccc(C)c34)[C@@H]3CCCNC3)c(C)c2)s1` [Example 628, (R)-2-methyl-4-(5-methyl-1,3,4-thiadiazol-2-yl)-N-(8-methylisoquinolin-1-yl)-N-(piperidin-3-yl)benzamide], for which the half-inhibitory concentration (IC50) worked out at 630 nM.

For `CCc1nnc(-c2ccc(C(=O)N(c3nccc4cccc(C)c34)[C@@H]3CCCNC3)cn2)s1` [Example 900, 6-(5-ethyl-1,3,4-thiadiazol-2-yl)-N-(8-methyl-1-isoquinolyl)-N-[(3R)-3-piperidyl] pyridine-3-carboxamide], the IC50 was found to be 70 nM.

With `C=Cc1csc2ccnc(N(C(=O)c3ccc(-c4nnc(C)s4)cc3F)[C@@H]3CCCNC3)c12` [Example 886, 2-fluoro-4-(5-methyl-1,3,4-thiadiazol-2-yl)-N-[(3R)-3-piperidyl]-N-(3-vinylthieno[3,2-c]pyridin-4-yl)benzamide], the IC50 worked out at 180 nM.

Regarding `O=C(c1ccc(-n2nnc3cccnc32)cc1F)N(c1nccc2ccc(/C=C\CO)cc12)[C@@H]1CCCNC1` [Example 337, (R,Z)-4-(3H-[1,2,3]triazolo[4,5-b]pyridin-3-yl)-2-fluoro-N-(7-(3-hydroxyprop-1-en-1-yl)isoquinolin-1-yl)-N-(piperidin-3-yl)benzamide], the IC50 was 250 nM.

For `COCCN(C)c1ccnc(Nc2ccc(C(=O)N(c3nccc4cccc(C)c34)[C@@H]3CCCNC3)c(F)c2)n1` [Example 742, (R)-2-fluoro-4-((4-((2-methoxyethyl)(methyl)amino)pyrimidin-2-yl)amino)-N-(8-methylisoquinolin-1-yl)-N-(piperidin-3-yl)benzamide], the 50% inhibitory concentration (IC50) is 82 nM.

Take `Cc1cc(C)c2c(N(C(=O)c3ccc(-c4nnc(C)s4)cn3)[C@@H]3CCCNC3)nccc2c1` [Example 701, (R)—N-(6,8-dimethylisoquinolin-1-yl)-5-(5-methyl-1,3,4-thiadiazol-2-yl)-N-(piperidin-3-yl)picolinamide]: the concentration for half-maximal inhibition (IC50) is 150 nM.

Regarding `Cn1cc(-c2ccc(C(=O)N(c3nccc4sc(Br)cc34)[C@@H]3CCCNC3)cc2O)cn1` [Example 475, N-(2-bromothieno[3,2-c]pyridin-4-yl)-3-hydroxy-4-(1-methylpyrazol-4-yl)-N-[(3R)-3-piperidyl] benzamide], the IC50 was 4600 nM.

Turning to `Cc1nnc(-c2ccc(C(=O)N(c3nccc4c(Cl)ccc(C)c34)[C@@H]3CCCNC3)nc2)s1` [Example 857, N-(5-chloro-8-methyl-1-isoquinolyl)-5-(5-methyl-1,3,4-thiadiazol-2-yl)-N-[(3R)-3-piperidyl]pyridine-2-carboxamide], the IC50 is 480 nM.

Regarding `Cc1cc(Cl)cc2ccnc(N(C(=O)c3ccc(-c4cc(Cl)cnn4)cn3)[C@@H]3CCCNC3)c12` [Example 769, (R)—N-(6-chloro-8-methylisoquinolin-1-yl)-5-(5-chloropyridazin-3-yl)-N-(piperidin-3-yl)picolinamide], the concentration for half-maximal inhibition (IC50) amounted to 120 nM.

Regarding `Cc1cccc2ccnc(N(C(=O)c3cccc(C#CCCC(=O)NCc4ccncc4)c3)[C@@H]3CCCNC3)c12` [Example 517, (R)—N-(8-methylisoquinolin-1-yl)-3-(5-oxo-5-((pyridin-4-ylmethyl)amino)pent-1-yn-1-yl)-N-(piperidin-3-yl)benzamide], the half-inhibitory concentration (IC50) stood at 7300 nM.

In the case of `CC(C)(O)c1cccc(-c2cc3c(N(C(=O)c4ccc(-n5nnc6cccnc65)cc4F)[C@@H]4CCCNC4)nccc3s2)c1` [Example 602, (R)-4-(3H-[1,2,3]triazolo[4,5-b]pyridin-3-yl)-2-fluoro-N-(2-(3-(2-hydroxypropan-2-yl)phenyl)thieno[3,2-c]pyridin-4-yl)-N-(piperidin-3-yl)benzamide], the concentration for half-maximal inhibition (IC50) came out at 460 nM.

For `O=C(c1ccc(-n2nnc3cccnc32)cc1F)N(c1nccc2sc(-c3cscn3)cc12)[C@@H]1CCCNC1` [Example 416, 2-fluoro-N-[(3R)-3-piperidyl]-N-(2-thiazol-4-ylthieno[3,2-c]pyridin-4-yl)-4-(triazolo[4,5-b]pyridin-3-yl)benzamide], the IC50 is 180 nM.

As for `Cc1cccc2ccnc(N(C(=O)c3ccc(Nc4nccc(-c5ccc6[nH]ncc6c5)n4)cc3F)[C@@H]3CCCNC3)c12` [Example 932, (R)-4-((4-(1H-indazol-5-yl)pyrimidin-2-yl)amino)-2-fluoro-N-(8-methylisoquinolin-1-yl)-N-(piperidin-3-yl)benzamide], the concentration for half-maximal inhibition (IC50) was determined as 20 nM.

As for `COCC#Cc1ccnc(Nc2ccc(C(=O)N(c3nccc4cccc(C)c34)[C@@H]3CCCNC3)c(F)c2)n1` [Example 751, (R)-2-fluoro-4-((4-(3-methoxyprop-1-yn-1-yl)pyrimidin-2-yl)amino)-N-(8-methylisoquinolin-1-yl)-N-(piperidin-3-yl)benzamide], the IC50 stood at 190 nM.

Turning to `NC(=O)c1cccc(-c2cc3c(N(C(=O)c4ccc(-n5nnc6cccnc65)cc4F)[C@@H]4CCCNC4)nccc3s2)c1` [Example 452, N-[2-(3-carbamoylphenyl)thieno[3,2-c]pyridin-4-yl]-2-fluoro-N-[(3R)-3-piperidyl]-4-(triazolo[4,5-b]pyridin-3-yl)benzamide], the IC50 turned out to be 180 nM.

As to `COc1cc(C)c2c(N(C(=O)c3ccc(-c4nnc(C)s4)cc3F)[C@@H]3CCCNC3)nccc2c1` [Example 860, 2-fluoro-N-(6-methoxy-8-methyl-1-isoquinolyl)-4-(5-methyl-1,3,4-thiadiazol-2-yl)-N-[(3R)-3-piperidyl]benzamide], the IC50 worked out at 48 nM.

Take `Cc1cc(C(=O)N(c2nccc3cccc(C)c23)[C@@H]2CCCNC2)ccc1Nc1ncccn1` [Example 747, (R)-3-methyl-N-(8-methylisoquinolin-1-yl)-N-(piperidin-3-yl)-4-(pyrimidin-2-ylamino)benzamide]: the IC50 was 2700 nM.

With `COCCn1cc(-c2ccc(C(=O)N(c3nccc4cc(Cl)cc(C)c34)[C@@H]3CCCNC3)cn2)nn1` [Example 921, N-(6-chloro-8-methyl-1-isoquinolyl)-6-[1-(2-methoxyethyl)triazol-4-yl]-N-[(3R)-3-piperidyl]pyridine-3-carboxamide], the IC50 worked out at 52 nM.

Regarding `Cc1cc2c(N(C(=O)c3ccc(-n4cnc5ccccc54)cc3F)[C@@H]3CCCNC3)nccc2s1` [Example 756, (R)-4-(1H-benzo[d]imidazol-1-yl)-2-fluoro-N-(2-methylthieno[3,2-c]pyridin-4-yl)-N-(piperidin-3-yl)benzamide], the half-inhibitory concentration (IC50) was more than 6300 nM.

In the case of `[2H]C([2H])([2H])n1cc(-c2ccc(C(=O)N(c3nccc4cc(F)cc(C)c34)[C@@H]3CCCNC3)c(F)c2)nn1` [Example 891, 2-fluoro-N-(6-fluoro-8-methyl-1-isoquinolyl)-N-[(3R)-3-piperidyl]-4-[1-(trideuteriomethyl)triazol-4-yl]benzamide], the IC50 amounted to 44 nM.

Consider `COC1CCN(c2ccnc(Nc3ccc(C(=O)N(c4nccc5cccc(C)c45)[C@@H]4CCCNC4)c(F)c3)n2)CC1` [Example 716, (R)-2-fluoro-4-((4-(4-methoxypiperidin-1-yl)pyrimidin-2-yl)amino)-N-(8-methylisoquinolin-1-yl)-N-(piperidin-3-yl)benzamide], for which the IC50 came to 34 nM.

Staying with this assay, now noted: MV-4-11 cells, 72 h, Cell-Titer Glo; read-out: IC50.
With `CNC(=O)c1cccc(-c2cc3c(N(C(=O)c4ccc(-c5cn(C)nn5)cc4F)[C@@H]4CCCNC4)nccc3s2)c1` [Example 541, 2-fluoro-N-[2-[3-(methylcarbamoyl)phenyl]thieno[3,2-c]pyridin-4-yl]-4-(1-methyltriazol-4-yl)-N-[(3R)-3-piperidyl] benzamide], the IC50 was 640 nM.
